The values that follow come from publication PMC5681654, “Dual protein kinase and nucleoside kinase modulators for rationally designed polypharmacology” (Nature Communications, 2017).

Entries after “also recorded” stand apart in the source; their conditions may differ.

For one experiment, the target named is dCK-C3S-S74E (Homo sapiens, UniProt P27707, C45S/C59S/C9S/S74E). The experiment in a line: Isothermal titration calorimetry (ITC).
Another experiment addresses recombinant human dCK (Homo sapiens, UniProt P27707). As to the kind of experiment: dCK kinetic assay (PK/LDH coupled, UTP as phosphate donor). The conditions noted are these: for effect on dCK enzymatic phosphorylation of gemcitabine: Supplementary Fig. 8; for effect on nucleoside phosphorylation by dCK: substrates 2′dC and gemcitabine, UTP, inhibitor/protein ratio 22.

The subject of experiment [1] is HRT18 (colon) cancer cell line. The experiment in a line: Cell proliferation assay (CellTiter-Blue), HRT18. The class given is cell-based, human. For orientation: Resazurin is reduced to fluorescent resorufin, in cell work by metabolically active cells.
Procedure: (§1) At the end of incubation, 10 µl of CellTiter-Blue Reagent were added to each well. The absorbance was read at 590 nm. The effect of the drugs on cells was expressed as a percentage of proliferation compared to untreated cells. […] Drug synergy effects were analysed using Combenefit (Cancer Research Cambridge Institute), a software tool that enables the visualisation, analysis and quantification of drug combination effects[49]. The data from combination treatments were processed using three synergy reference models: highest single agent (HSA) model, Loewe additivity model and Bliss independence model for HRT18 and LnCAP cell lines.
The subject of experiment [2] is A549 (lung) cancer cell line. As to the kind of experiment: Cell proliferation assay (CellTiter-Blue), A549. In kind it is cell-based, human. Conditions: gemcitabine 0−100 µM or masitinib 0−10 µM alone, 5 days.
Procedure: as §1
The subject of experiment [3] is LNCaP (prostate) cancer cell line. The experiment in a line: Cell proliferation assay (CellTiter-Blue), LNCaP. In kind it is cell-based, human.
Procedure: as §1
The subject of experiment [4] is CHO cells (constitutive dCK). As to the kind of experiment: Cell proliferation assay (CellTiter-Blue), CHO. In kind it is cell-based, Chinese hamster. The conditions noted are these: gemcitabine 0−1 µM, 5 days.
Procedure: as §1
Experiment [5] concerns CHO dCK- cells (deficient dCK). As to the kind of experiment: Cell proliferation assay (CellTiter-Blue), CHO dCK-. The conditions noted are these: gemcitabine 0−1 µM, 5 days. In kind it is cell-based, Chinese hamster.
Procedure: as §1
In experiment [6] the test system is CHO dCK Rescue cells (partially reconstituted dCK). The experiment in a line: Cell proliferation assay (CellTiter-Blue), CHO dCK Rescue. In kind it is cell-based, Chinese hamster. The conditions noted are these: CHO dCK Rescue (low dCK expression); gemcitabine 0−1 µM; 5 days.
Procedure: At the end of incubation, 10 µl of CellTiter-Blue Reagent were added to each well. The absorbance was read at 590 nm. The effect of the drugs on cells was expressed as a percentage of proliferation compared to untreated cells.
CHO dCK deficient cells (CHO dCK-) were plated in 96-well plates at a density of 5000 cells per well and incubated overnight. The cells were transfected with the pMSCV insert free (vector control) and pMSCV-dCK respectively, using FuGENE 6 Transfection Reagent (Promega) according to manufacturer recommendations. Two days after transfection, cells were plated in 6-well plates and selected in 1 mg ml^-1 Geniticin-G418 (Gibco) for 2 weeks. The positive clones were picked and expanded to establish cell lines. The stable transfection cell clones, named as CHO dCK Rescue, were controlled by western blot analysis for dCK expression levels.
Experiment [7] concerns the target biotinylated dCK-C3S-S74E (Homo sapiens, UniProt P27707, C45S/C59S/C9S/S74E). The experiment in a line: Bio-layer interferometry kinetics, immobilised biotinylated dCK. A general note: In BLI a coated tip is dipped into the sample, and binding shifts an interference pattern.
Procedure: BLI measurements were carried out using an Octet RED96 instrument (ForteBio). Biotinylated dCK was immobilised on SSA biosensors at a concentration of 5 μM after 1200 s. Free streptavidin sites were blocked by incubating with 10 μg ml^−1 biocytin (Sigma-Aldrich) for 100 s and 1% BSA for 1000 s. A control set of SSA biosensors were prepared in parallel by blocking the surface with biocytin instead of protein. A three-point concentration series were prepared for each compound and were measured using 60 s association and 140 s dissociation steps at 30 °C with a shake speed of 1000 r.p.m. All measurements were performed in binding buffer containing 20 mM HEPES, pH 7.5, 200 mM NaCl, 0.1% BSA and 1% DMSO. Each experiment was performed at least twice and K D, k on and k off values were determined using the global fitting procedure in the ForteBio Data Analysis Software.
Experiment [8] deals with T1, uridine-cytidine kinase 1 (UCK1) (Homo sapiens, UniProt Q9HA47).
T1 construct: made in house; host or cells: E. coli BL21 DE3
T1 sequence (Q9HA47 1-277): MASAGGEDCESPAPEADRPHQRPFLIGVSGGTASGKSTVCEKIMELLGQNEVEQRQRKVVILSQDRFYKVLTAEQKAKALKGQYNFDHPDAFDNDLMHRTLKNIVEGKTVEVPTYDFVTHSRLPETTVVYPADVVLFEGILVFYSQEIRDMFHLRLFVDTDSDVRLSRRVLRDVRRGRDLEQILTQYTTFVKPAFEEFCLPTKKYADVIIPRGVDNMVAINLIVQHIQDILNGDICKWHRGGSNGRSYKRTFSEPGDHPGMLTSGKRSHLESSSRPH
As to the kind of experiment: UCK1 kinetic assay (PK/LDH coupled, ATP as phosphate donor). Conditions: masitinib/protein ratios 0, 1, 10, 100. In kind it is biochemical. Here is the method: Kinetic analyses were performed using a spectrophotometric continuous enzymatic-coupled assay using pyruvate kinase (PK) and lactate dehydrogenase (LDH). […] . […] All assays were performed in triplicate and each experiment was performed at least twice. The data are presented as mean ± s.d. The results were plotted as kinetics and the velocity was determined for each condition as the slope of the linear range of the curve. […] . K m (Michaelis−Menten constant) and V max (maximal velocity) values were determined using PRISM software (GraphPad Software Inc.) by fitting the experimental data according to the Michaelis−Menten approximation defined as Equation 1.1 V=Vmax⋅S∕Km+S

The next experiment addresses T2, thymidine kinase (TK1) (Homo sapiens, UniProt P04183).
T2 sequence (P04183 2-234 limits assumed): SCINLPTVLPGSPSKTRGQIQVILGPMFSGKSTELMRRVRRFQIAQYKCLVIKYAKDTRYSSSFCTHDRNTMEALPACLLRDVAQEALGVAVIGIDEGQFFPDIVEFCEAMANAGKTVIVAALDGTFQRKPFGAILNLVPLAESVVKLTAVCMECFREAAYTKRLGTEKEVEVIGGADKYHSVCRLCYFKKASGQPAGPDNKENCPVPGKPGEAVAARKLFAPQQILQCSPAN
As to the kind of experiment: TK1 kinetic assay (HTRF Transcreener ADP assay). The conditions noted are these: masitinib/protein ratios 1, 5, 10, 20, 40.

recombinant human dCK, sequence (P27707 whole entry): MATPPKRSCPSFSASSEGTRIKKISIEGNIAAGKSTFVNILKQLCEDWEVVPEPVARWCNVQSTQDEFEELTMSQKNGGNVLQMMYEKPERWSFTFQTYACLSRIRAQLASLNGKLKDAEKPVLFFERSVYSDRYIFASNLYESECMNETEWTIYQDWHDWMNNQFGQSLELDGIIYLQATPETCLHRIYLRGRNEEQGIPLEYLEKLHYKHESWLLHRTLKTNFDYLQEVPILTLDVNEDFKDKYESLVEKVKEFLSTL
dCK-C3S-S74E, sequence (P27707 whole entry C9S/C45S/C59S/S74E): as the sequence (P27707 whole entry) above, with C9S, C45S, C59S, S74E counted along it
biotinylated dCK-C3S-S74E, sequence (P27707 whole entry C9S/C45S/C59S/S74E): as the sequence (P27707 whole entry) above, with C9S, C45S, C59S, S74E counted along it
Procedure for recombinant human dCK: Kinetic analyses were performed using a spectrophotometric continuous enzymatic-coupled assay using pyruvate kinase (PK) and lactate dehydrogenase (LDH). […] All measurements were performed on a BMG Labtech Pherastar FS apparatus. All assays were performed in triplicate and each experiment was performed at least twice. The data are presented as mean ± s.d. The results were plotted as kinetics and the velocity was determined for each condition as the slope of the linear range of the curve. […] K m (Michaelis−Menten constant) and V max (maximal velocity) values were determined using PRISM software (GraphPad Software Inc.) by fitting the experimental data according to the Michaelis−Menten approximation defined as Equation 1.1 V=Vmax⋅S∕Km+S
Procedure for thymidine kinase (TK1): ADP and ADP-d2 compete for the binding to a monoclonal anti-ADP antibody labelled with Europium (Eu^3+) cryptate. […] The obtained signal is inversely proportional to the concentration of ADP in the sample. All measurements were performed on a BMG Labtech Pherastar FS apparatus.

Turning to `Nc1ncn([C@H]2C[C@H](O)[C@@H](CO)O2)c(=O)n1` [Decitabine, decitabine], the equilibrium dissociation constant (Kd) at dCK-C3S-S74E worked out at 31 ± 5.4 µM.

Take `CNC(=O)c1ccccc1Sc1ccc2c(/C=C/c3ccccn3)n[nH]c2c1` [axitinib]: on recombinant human dCK, the “effect on dCK enzymatic phosphorylation of gemcitabine” value (from here on “effect … of gemcitabine”) is given as “none of the compounds showed an activation effect”.

Consider `Cc1ccc(NC(=O)c2ccc(CN3CC[C@H](N(C)C)C3)c(C(F)(F)F)c2)cc1Nc1nccc(-c2cncnc2)n1` [bafetinib], for which, at recombinant human dCK, the “effect on nucleoside phosphorylation by dCK” value (from here on “effect … by dCK”) is recorded as “most active”.

As to `COc1cc(Nc2c(C#N)cnc3cc(OCCCN4CCN(C)CC4)c(OC)cc23)c(Cl)cc1Cl` [bosutinib], on recombinant human dCK, the “effect … by dCK” value is listed as “most active”.

Consider `C#Cc1cccc(Nc2ncnc3cc(OCCOC)c(OCCOC)cc23)c1` [erlotinib], for which the “effect … of gemcitabine” value at recombinant human dCK is reported as “none of the compounds showed an activation effect”.

With `Nc1ccn([C@@H]2O[C@H](CO)[C@@H](O)C2(F)F)c(=O)n1` [gemcitabine], the “anti-proliferative effect, single agent” value is reported as “could not induce strong anti-proliferative effects” in experiment [1] (gemcitabine 0−100 µM or masitinib 0−10 µM alone, 5 days); “could not induce strong anti-proliferative effects” in experiment [2]; “could not induce strong anti-proliferative effects” in experiment [3] (LNCaP, gemcitabine 0−100 µM or masitinib 0−10 µM alone, 5 days). Besides, the sensitivity to gemcitabine result in [4] is on record as “strong sensitivity to gemcitabine”; in [5], “did not show any anti-proliferative effect”; in [6], “restored the capacity of CHO cells to respond to gemcitabine treatment”. The same compound showed a Kd at dCK-C3S-S74E of 22.2 µM. Besides, the “BLI signal for substrate binding” value in [7] was “could not detect any signal”.

In the case of `Cc1ccc(NC(=O)c2ccc(CN3CCN(C)CC3)cc2)cc1Nc1nc(-c2cccnc2)cs1` [masitinib], the “drug synergy with gemcitabine (Combenefit: HSA, Loewe, Bliss models)” value in experiment [1] and in experiment [3] (LnCAP) was “synergetic effect” in each case. In experiment [8], the “modulation of UCK1 enzymatic activity” value was “didn’t produce an enzymatic modulation; also recorded: did not observe an enzymatic activation”. Moreover, at thymidine kinase (TK1), the “modulation of TK1 enzymatic activity” value is “didn’t produce an enzymatic modulation; also recorded: did not observe an enzymatic activation”.

Turning to `CN[C@@H]1C[C@H]2O[C@@](C)([C@@H]1OC)n1c3ccccc3c3c4c(c5c6ccccc6n2c5c31)C(=O)NC4` [staurosporine], on recombinant human dCK, the “effect … of gemcitabine” value was “none of the compounds showed an activation effect”.

Take `Cc1cc(Nc2cc(N3CCN(C)CC3)nc(Sc3ccc(NC(=O)C4CC4)cc3)n2)[nH]n1` [tozasertib]: the “effect … by dCK” value at recombinant human dCK was “most active”.

In general, Kd refers to the constant that tells how readily two partners part at equilibrium. A high value points to weaker binding.
